Results reported in PubChem BioAssay (NCI).
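96-well plates; 48 h exposure; 5 concentrations. Endpoints by linear interpolation between flanking doses. Not reached: highest tested concentration assigned. TGI denotes the concentration required for complete inhibition of growth.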

Key:
Experiment in all cases: inhibition of tumour cell growth, NCI panel, 48 h
UACC-257 melanoma = system: UACC-257 melanoma
KM20L2 colon = system: KM20L2 colon
UACC-62 melanoma = system: UACC-62 melanoma
NCI-H522 lung = system: NCI-H522 lung
SNB-78 CNS = system: SNB-78 CNS
DLD-1 colon = system: DLD-1 colon
COLO 205 colon = system: COLO 205 colon
RPMI-8226 leukemia = system: RPMI-8226 leukemia
A498 renal = system: A498 renal
HT29 colon = system: HT29 colon
HCT-116 colon = system: HCT-116 colon
SK-MEL-2 melanoma = system: SK-MEL-2 melanoma
M14 melanoma = system: M14 melanoma
HCT-15 colon = system: HCT-15 colon
KM12 colon = system: KM12 colon
K-562 leukemia = system: K-562 leukemia
ACHN renal = system: ACHN renal
OVCAR-8 ovarian = system: OVCAR-8 ovarian
A549 NSCLC = system: A549 NSCLC
SN12C renal = system: SN12C renal
OVCAR-4 ovarian = system: OVCAR-4 ovarian
SK-MEL-5 melanoma = system: SK-MEL-5 melanoma
TK-10 renal = system: TK-10 renal
MALME-3M melanoma = system: MALME-3M melanoma
HCC-2998 colon = system: HCC-2998 colon
SF-268 CNS = system: SF-268 CNS
RXF 393 renal = system: RXF 393 renal
XF 498 CNS = system: XF 498 CNS
SK-MEL-28 melanoma = system: SK-MEL-28 melanoma
NCI-H23 lung = system: NCI-H23 lung
U251 CNS = system: U251 CNS
SF-295 CNS = system: SF-295 CNS
SNB-75 CNS = system: SNB-75 CNS
CCRF-CEM leukemia = system: CCRF-CEM leukemia
NCI-H460 lung = system: NCI-H460 lung
IGROV1 ovarian = system: IGROV1 ovarian
SNB-19 CNS = system: SNB-19 CNS
HL-60(TB) leukemia = system: HL-60(TB) leukemia
HOP-62 NSCLC = system: HOP-62 NSCLC
MOLT-4 leukemia = system: MOLT-4 leukemia
SK-OV-3 ovarian = system: SK-OV-3 ovarian
EKVX NSCLC = system: EKVX NSCLC
SW-620 colon = system: SW-620 colon
DMS 273 small cell lung = system: DMS 273 small cell lung
CAKI-1 renal = system: CAKI-1 renal
UO-31 renal = system: UO-31 renal
786-0 renal = system: 786-0 renal
SF-539 CNS = system: SF-539 CNS
DMS 114 small cell lung = system: DMS 114 small cell lung
LXFL 529 NSCLC = system: LXFL 529 NSCLC
OVCAR-3 ovarian = system: OVCAR-3 ovarian
HOP-92 NSCLC = system: HOP-92 NSCLC
NCI-H226 lung = system: NCI-H226 lung
LOX IMVI melanoma = system: LOX IMVI melanoma
OVCAR-5 ovarian = system: OVCAR-5 ovarian
M19-MEL melanoma = system: M19-MEL melanoma
SR leukemia = system: SR leukemia

Measured: TGI

Cc1nc(N)nn1C1OCC(O)C(O)C1O (stereo not drawn)
not listed: HOP-92 NSCLC | NCI-H226 lung | LOX IMVI melanoma | OVCAR-5 ovarian | M19-MEL melanoma | SR leukemia
> 100 µM: all other assays above

O=C1c2cccc(O)c2C(=O)c2cccc(O)c21
not listed: KM20L2 colon | SK-MEL-5 melanoma | MALME-3M melanoma | SK-MEL-28 melanoma | HL-60(TB) leukemia | SK-OV-3 ovarian | DMS 114 small cell lung | SR leukemia
> 100 µM: all other assays above

COc1ccc(/C=c2/sc3n(c2=O)NC2(CCCCC2)NN=3)cc1
not listed: UACC-257 melanoma | RPMI-8226 leukemia | A498 renal | HCT-15 colon | ACHN renal | U251 CNS | HL-60(TB) leukemia | HOP-62 NSCLC | DMS 114 small cell lung
> 100 µM: all other assays above
